Reference: ChEMBL document CHEMBL2074280, “Acceleration of MRP-associated efflux of rhodamine 123 by genistein and related compounds” (Br J Cancer, 1996)

Key:
Format in all cases: functional, cell-based
[1] = biological target: ATP-dependent translocase ABCB1 (Homo sapiens, UniProt P08183); assay: TP_TRANSPORTER: increase in DNR intracellular accumulation (DNR: 0.5 uM, Genistein: 200 uM) in H69/LX4 cells; settings: h69/lx4, 200 µM
[2] = biological target: T1, Multidrug resistance-associated protein 1 (Homo sapiens, UniProt P33527); assay: TP_TRANSPORTER: increase in DNR intracellular accumulation (DNR: 0.5 uM, Genistein: 200 uM) in COR-L23/R cells
T1 sequence (P33527 whole entry): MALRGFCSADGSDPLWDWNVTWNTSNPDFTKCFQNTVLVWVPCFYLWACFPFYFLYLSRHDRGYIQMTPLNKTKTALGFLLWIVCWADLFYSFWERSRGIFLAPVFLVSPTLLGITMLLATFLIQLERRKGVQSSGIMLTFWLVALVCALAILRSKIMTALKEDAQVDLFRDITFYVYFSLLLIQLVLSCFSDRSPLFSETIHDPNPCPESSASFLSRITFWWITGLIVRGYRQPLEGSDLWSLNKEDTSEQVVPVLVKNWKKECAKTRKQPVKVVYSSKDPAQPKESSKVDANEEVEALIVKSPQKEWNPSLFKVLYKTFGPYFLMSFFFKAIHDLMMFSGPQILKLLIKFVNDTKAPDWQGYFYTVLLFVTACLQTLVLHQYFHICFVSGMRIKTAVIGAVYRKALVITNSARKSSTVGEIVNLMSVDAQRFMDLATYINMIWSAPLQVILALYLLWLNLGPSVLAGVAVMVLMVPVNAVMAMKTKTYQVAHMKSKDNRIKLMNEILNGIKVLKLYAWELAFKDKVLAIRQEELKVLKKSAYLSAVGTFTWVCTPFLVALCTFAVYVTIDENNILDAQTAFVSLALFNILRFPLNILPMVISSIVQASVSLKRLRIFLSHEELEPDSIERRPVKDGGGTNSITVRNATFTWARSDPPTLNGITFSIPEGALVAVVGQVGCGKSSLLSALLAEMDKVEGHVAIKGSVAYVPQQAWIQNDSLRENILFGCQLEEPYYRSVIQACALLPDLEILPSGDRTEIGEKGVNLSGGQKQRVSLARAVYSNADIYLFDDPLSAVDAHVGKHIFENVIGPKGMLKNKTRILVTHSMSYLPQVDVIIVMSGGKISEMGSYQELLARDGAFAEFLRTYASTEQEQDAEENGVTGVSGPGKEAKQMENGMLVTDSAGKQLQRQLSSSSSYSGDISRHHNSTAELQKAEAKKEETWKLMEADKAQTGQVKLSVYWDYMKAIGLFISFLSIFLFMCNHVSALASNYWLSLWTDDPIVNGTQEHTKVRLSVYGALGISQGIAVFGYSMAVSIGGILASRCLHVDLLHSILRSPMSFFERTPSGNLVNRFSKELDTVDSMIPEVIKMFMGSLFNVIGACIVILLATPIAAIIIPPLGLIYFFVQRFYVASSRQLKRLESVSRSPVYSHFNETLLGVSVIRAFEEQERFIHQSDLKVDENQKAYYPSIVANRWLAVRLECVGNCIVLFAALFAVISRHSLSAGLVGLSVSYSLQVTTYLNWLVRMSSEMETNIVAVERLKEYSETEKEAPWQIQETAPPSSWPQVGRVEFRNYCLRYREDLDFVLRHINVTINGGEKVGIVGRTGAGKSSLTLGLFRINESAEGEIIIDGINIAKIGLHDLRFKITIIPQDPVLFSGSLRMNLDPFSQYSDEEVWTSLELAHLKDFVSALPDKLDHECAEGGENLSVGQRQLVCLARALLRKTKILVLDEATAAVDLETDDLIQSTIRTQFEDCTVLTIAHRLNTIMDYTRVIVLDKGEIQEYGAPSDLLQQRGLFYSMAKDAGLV

[3] = biological target: T1, Multidrug resistance-associated protein 1; assay: TP_TRANSPORTER: increase in DNR intracellular accumulation (DNR: 0.5 uM, Genistein: 200 uM) in MOR-R cells

Measured: Activity

ATP-dependent translocase ABCB1, sequence (P08183 whole entry): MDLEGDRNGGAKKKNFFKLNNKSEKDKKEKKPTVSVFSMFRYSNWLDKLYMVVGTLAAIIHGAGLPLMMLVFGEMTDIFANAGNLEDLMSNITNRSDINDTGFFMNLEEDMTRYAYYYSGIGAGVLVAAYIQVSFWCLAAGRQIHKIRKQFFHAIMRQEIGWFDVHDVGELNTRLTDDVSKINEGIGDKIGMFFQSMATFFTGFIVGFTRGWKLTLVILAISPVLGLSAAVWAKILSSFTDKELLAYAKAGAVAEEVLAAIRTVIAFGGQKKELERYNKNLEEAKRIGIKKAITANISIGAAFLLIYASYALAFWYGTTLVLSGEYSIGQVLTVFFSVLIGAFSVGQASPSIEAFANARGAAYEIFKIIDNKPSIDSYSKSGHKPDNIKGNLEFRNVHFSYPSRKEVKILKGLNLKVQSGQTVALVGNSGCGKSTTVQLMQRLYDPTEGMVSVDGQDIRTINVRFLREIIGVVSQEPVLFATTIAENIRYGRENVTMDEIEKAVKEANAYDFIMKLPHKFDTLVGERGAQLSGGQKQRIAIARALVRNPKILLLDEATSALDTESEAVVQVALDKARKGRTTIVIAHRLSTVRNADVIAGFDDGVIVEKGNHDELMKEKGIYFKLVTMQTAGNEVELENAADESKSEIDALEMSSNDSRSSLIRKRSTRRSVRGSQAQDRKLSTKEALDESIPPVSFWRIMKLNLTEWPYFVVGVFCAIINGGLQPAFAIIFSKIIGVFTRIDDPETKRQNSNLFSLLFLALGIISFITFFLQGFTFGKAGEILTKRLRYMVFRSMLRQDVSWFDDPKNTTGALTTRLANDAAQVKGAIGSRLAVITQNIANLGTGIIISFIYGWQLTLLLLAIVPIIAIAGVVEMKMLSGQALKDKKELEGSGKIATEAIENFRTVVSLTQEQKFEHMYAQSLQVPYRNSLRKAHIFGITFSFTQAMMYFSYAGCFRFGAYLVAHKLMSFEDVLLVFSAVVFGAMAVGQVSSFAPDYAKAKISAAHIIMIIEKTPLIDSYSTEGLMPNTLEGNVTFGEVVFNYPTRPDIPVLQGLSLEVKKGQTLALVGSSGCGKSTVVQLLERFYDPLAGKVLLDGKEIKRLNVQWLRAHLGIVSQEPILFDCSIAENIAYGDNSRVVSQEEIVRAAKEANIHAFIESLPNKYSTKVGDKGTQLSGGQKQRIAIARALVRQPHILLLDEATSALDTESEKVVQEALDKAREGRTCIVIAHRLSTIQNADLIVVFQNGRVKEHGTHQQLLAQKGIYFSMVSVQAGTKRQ

O=c1c(-c2ccc(O)cc2)coc2cc(O)cc(O)c12 [GENISTEIN]
inhibitor [+]: [1] | [2] | [3]
